Patent publication US10849898B2, “Treatment of relapsed and/or refractory solid tumors and non-Hodgkin's lymphomas” (CELGENE QUANTICEL RESEARCH, INC., priority 2016, dated 2020)
Read-outs that look alike come from different tables or passages of the source.

What was measured:
[1] = target: hERG potassium channel (Homo sapiens (Human), UniProt Q12809); conditions: hERG current
[2] = Hemodynamic and ECG parameters in anesthetized guinea pigs; assay type: in vivo, Dunkin Hartley guinea pigs
From the text: Animals were monitored throughout the experiment.

[3] = test system: LU2514 SCLC PDX; experiment: Efficacy in LU2514 HuPrime SCLC patient derived xenograft; assay type: in vivo, mice; conditions: both LU2514 studies
Method: Tumor growth inhibition analysis was performed on Day 28 post treatment, the last day of dosing.

[4] = 4-week oral gavage pivotal toxicity study with 4-week recovery in dogs (with ECG and toxicokinetics); assay type: in vivo, Beagle dogs
Method: The QTc interval was calculated using the Fridericia method.

[5] = Metabolism in cryopreserved primary hepatocytes; assay type: in vitro ADME; conditions: mouse, rat, dog, monkey, human
[6] = Pharmacokinetics after IV and oral administration; assay type: in vivo, Sprague Dawley rats; conditions: rats
From the text: (§1) Human PK parameters and exposures were predicted using allometric scaling. Mice and dogs were the species used for nonclinical toxicology assessment. […] Excretion of non-radiolabeled Compound A was studied in rats.

[7] = test system: MKL-1 hMCC xenograft; assay type: in vivo; conditions: 5 mg/kg PO 5 on/2 off
[8] = test system: MS-1 hMCC xenograft; assay type: in vivo; conditions: 5 mg/kg PO 5 on/2 off
[9] = test system: MKL-1 cells; experiment: Modulation of gene expression by RNA-seq; assay type: cell-based, human
Method: Libraries were sequenced on an Illumina NextSeq® 500 System (Illumina, San Diego, Calif.) using 75 base paired-end RNA sequencing. Sequenced reads were mapped to the hg19 human genome build and differential expression was determined by analysis of variance across all replicates relative to the vehicle control.
Sequenced reads were mapped to the hg19 human genome build using the Spliced Transcripts Alignment to a Reference (STAR) software tool (OAlexander Dobin, 2009-2016) and transcript counts were normalized using the Empirical Analysis of Digital Gene Expression Data in R (edgeR) and Differential gene expression analysis based on the negative binomial distribution (DESeq2) software tools (OBioconductor, 2003-2017). Differential expression was determined by analysis of variance across all replicates relative to the vehicle control.

[10] = Exploratory toxicity study in mice; assay type: in vivo, CD-1 mice
From the text: Additional animals were included for TK evaluation.

[11] = Exploratory toxicity study in dogs
[12] = Excretion in bile duct cannulated rats; assay type: in vivo; conditions: IV
[13] = test system: LU2527 lung NEC PDX; assay type: in vivo
[14] = Pharmacokinetics after IV and oral administration; assay type: in vivo, CD-1 mice; conditions: Mouse, female, single IV 5 mg base/kg
From the text: as §1

[15] = test system: LXFS 573 SCLC PDX; experiment: Efficacy in LXFS 573 SCLC PDX model; assay type: in vivo, mice
[16] = test system: LXFS 573 SCLC PDX; conditions: for SS, number of study survivors: Day 133, N=8
[17] = test system: GA0087 gastric NEC PDX; assay type: in vivo
[18] = test system: Salmonella typhimurium TA98 and TA 100 strains; experiment: Bacterial reverse mutation assay; assay type: cell-based; conditions: up to 500 μg/mL; with and without S9
[19] = test system: NCI-H1417 SCLC xenograft; experiment: Efficacy in NCI-H1417 SCLC xenograft model (athymic nude mice); assay type: in vivo
[20] = test system: NCI-H1417 SCLC xenograft; conditions: 24 mg/kg Etoposide SC QD × 3
[21] = Etoposide at 24 mg/kg/day SC days 1-3 + Vehicle

hERG potassium channel, sequence (Q12809 whole entry): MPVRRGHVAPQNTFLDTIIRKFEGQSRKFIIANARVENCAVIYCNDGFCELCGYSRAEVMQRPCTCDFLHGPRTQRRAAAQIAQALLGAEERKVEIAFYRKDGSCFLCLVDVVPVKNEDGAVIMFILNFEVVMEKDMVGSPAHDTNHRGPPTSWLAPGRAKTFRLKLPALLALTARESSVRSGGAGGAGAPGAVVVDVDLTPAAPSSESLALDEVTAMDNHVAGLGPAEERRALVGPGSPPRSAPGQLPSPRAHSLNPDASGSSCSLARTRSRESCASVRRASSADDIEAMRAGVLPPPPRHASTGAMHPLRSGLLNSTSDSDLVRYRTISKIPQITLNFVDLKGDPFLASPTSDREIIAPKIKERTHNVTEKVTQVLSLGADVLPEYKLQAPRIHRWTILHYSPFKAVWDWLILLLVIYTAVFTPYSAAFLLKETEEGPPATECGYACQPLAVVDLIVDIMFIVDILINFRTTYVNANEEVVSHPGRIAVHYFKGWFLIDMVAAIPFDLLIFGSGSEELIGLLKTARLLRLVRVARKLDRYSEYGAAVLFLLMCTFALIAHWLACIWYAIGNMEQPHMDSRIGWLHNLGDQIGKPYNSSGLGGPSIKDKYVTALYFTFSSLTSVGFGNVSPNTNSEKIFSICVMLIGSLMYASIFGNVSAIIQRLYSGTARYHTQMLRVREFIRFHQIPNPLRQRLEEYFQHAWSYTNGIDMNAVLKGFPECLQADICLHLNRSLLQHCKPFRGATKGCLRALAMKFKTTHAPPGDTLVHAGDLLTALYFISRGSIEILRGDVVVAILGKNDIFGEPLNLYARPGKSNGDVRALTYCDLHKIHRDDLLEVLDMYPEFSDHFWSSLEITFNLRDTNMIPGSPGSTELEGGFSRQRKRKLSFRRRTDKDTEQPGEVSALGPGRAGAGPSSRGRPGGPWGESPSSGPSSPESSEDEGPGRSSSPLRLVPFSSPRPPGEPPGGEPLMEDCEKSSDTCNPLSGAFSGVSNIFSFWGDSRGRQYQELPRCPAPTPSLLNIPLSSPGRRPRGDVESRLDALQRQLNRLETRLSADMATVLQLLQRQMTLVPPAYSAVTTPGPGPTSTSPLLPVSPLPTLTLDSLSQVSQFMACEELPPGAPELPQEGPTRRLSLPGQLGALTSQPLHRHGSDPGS

For `COc1ccc(-c2c(-c3ccc(C#N)c(F)c3)nc(N3CCC(N)CC3)n(C)c2=O)cc1F` [Compound A, 4-[2-(4-amino-piperidin-1-yl)-5-(3-fluoro-4-methoxy-phenyl)-1-methyl-6-oxo-1,6-dihydro-pyrimidin-4-yl]-2-fluoro-benzonitrile], the Hill coefficient [1] was 1.2, the “maximum suppression of HR vs vehicle” value ([2]; 20 mg base/kg IV, 9 minutes into 10-minute infusion) was 19% and the “effect on MAP or its components” value ([2]; IV 5-20 mg base/kg vs time-matched vehicle) was “No notable effect”. The “QTcB interval increase at end of monitoring period” value ([2]; after escalating IV doses) was 10%, the “mean body weight losses” value [3] was < 10% and the animals euthanized moribund ([4]; 0.375 mg base/kg QW) was 1 male. The animals euthanized moribund ([4]; 0.75 mg base/kg QW) was 2 males and 1 female, the animals euthanized moribund ([4]; 1.5 mg base/kg QW) was 3 males and 4 females and the “recovery of findings after 4-week treatment-free period” value ([4]; dog, in vivo) was “complete recovery”. The animals euthanized moribund ([4]; weekly oral administration, study Days 13 to 23) was 11 animals, the “metabolic stability in hepatocytes” value [5] was “greater in rat and dog followed by human and monkeys while being least stable in mouse hepatocytes” and the systemic clearance [6] was “greater than liver blood flow”. The “Median Tumor Volumes Day −3” value [7] was 65 mm^3, the “Median Tumor Volumes Day −3” value [8] was 49 mm^3 and the “downregulated genes changed in both hMCC lines at both concentrations (of 4303)” value ([9]; MKL-1 and MS-1, 10 and 100 nM, 3 days) was 17 genes. The “ST18 and FREM2 gene expression change (upregulated, dose-dependent)” value ([9]; both hMCC lines, 10 and 100 nM) was “at least 2 fold”, the “increase in platelets on Day 8 vs end of first dosing period” value ([10]; 10 mg/kg/day 5 days on/2 days off) was > 2 fold and the “greatest reduction in neutrophil counts vs controls and pre-study values” ([10]; 5 days on/2 days off schedule) was “approximately 90%”. The “circulating platelets at end of study” value ([10]; all dose levels) was “reduced”, the “Compound A-related effects” value ([11]; 0.25 mg/kg/dose QOD) was “generally no Compound A-related effects” and the “body weight loss of moribund female” value ([11]; 0.5 mg/kg/day 5 days on/2 days off, Day 12) was 10.8%. The mortality ([11]; 0.5 mg/kg/day 5 days on/2 days off, one female, Day 12) was “sacrificed moribund”, the “dose excreted intact in urine” value ([12]; 24 hours) was 8.5 % of dose and the “dose excreted intact in 24 hours (urine + bile)” value ([12]; bile duct cannulated rats) was 26.3 % of the dose. For the same compound, the “Median Tumor Volumes Day 0” value ([13]; 1.5 mg base/kg PO QD × 46) was 148.2 mm^3, the “Median Tumor Volumes Day 0” value ([13]; 5 mg base/kg PO QD × 46) was 151.8 mm^3 and the clearance ([14]; CD-1, plasma) was 39 mL/min/kg. For the same compound, the Vss [14] was 7.31 L/kg, the “Median Tumor Volumes Day 1” value ([15]; 5 mg base/kg PO QD × 28) was 108.4 mm^3 and the “TGI end of study (Day 28)” value ([15]; 5 mg base/kg oral) was 78%. The “Median Tumor Volumes Day 1” value ([15]; 7.5 mg base/kg PO QD × 28) was 113.2 mm^3, the “Median Tumor Volumes Day 1” value ([15]; 10 mg base/kg PO QD × 28) was 113.8 mm^3 and the “tumor volume of survivor at study end” value ([16]; Compound A 1 mg/kg in combination with etoposide 24 mg/kg) was 1430 mm3. For the same compound, the “survivors on Day 133” value ([16]; Compound A 1 mg/kg in combination with etoposide 24 mg/kg, n=8) was 1 animals, the “MTV of survivors on Day 133” value ([16]; Compound A 2.5 mg/kg in combination with etoposide 24 mg/kg) was 1121 mm3 and the “survivors on Day 133” value ([16]; Compound A 2.5 mg/kg in combination with etoposide 24 mg/kg, n=8) was 3 animals. The “MTV of survivors on Day 133” value ([16]; Compound A 5 mg/kg in combination with etoposide 24 mg/kg) was 121 mm3, the “survivors on Day 133” value ([16]; Compound A 5 mg/kg in combination with etoposide 24 mg/kg, n=8) was 8 animals and the “Median TTE” value ([16]; Compound A at 5 mg/kg/day PO days 1-133) was 133 days. The “SS, number of study survivors” value ([16]; Compound A at 5 mg/kg/day) was 7, the “study survivors on Day 133” value ([16]; Compound A monotherapy 5 mg/kg, n=8) was “seven” and the “Median Tumor Volumes Day 0” value ([17]; Group 2, 1.5 mg base/kg PO QD × 53) was 128.9 mm^3. The “Median Tumor Volumes Day 0” value ([17]; Group 3, dose printed 1.5 mg base/kg (text: 5 mg/kg) PO QD × 53) was 127.6 mm^3, the mutagenicity [18] was “negative” and the “mean body weight gain by end of study” value ([19]; 2.5 mg base/kg PO QD×65) was 1%. The “mean body weight gain by end of study” value ([19]; 5 mg base/kg PO QD×65) was 7.5% and the tolerability ([19]; 2.5 or 5 mg base/kg PO QD×65) was “well tolerated”.
With `COc1cc([C@@H]2c3cc4c(cc3[C@@H](O[C@@H]3O[C@@H]5CO[C@@H](C)O[C@H]5[C@H](O)[C@H]3O)[C@H]3COC(=O)[C@H]23)OCO4)cc(OC)c1O` [Etoposide, etoposide, reference compound] the “% TGD” value [20] was 97%, the “Median TTE” value [20] was 50 days and the “T − C” value [20] was 24 days. The “SS, number of study survivors” value ([16]; Etoposide at 24 mg/kg/day + Vehicle) was 0 (na), the “Median TTE” value [16, 21] was 63 days and the “T-C” value [16, 21] was 21 days. For the same compound, the “% TGD” value ([16]; etoposide monotherapy 24 mg/kg) was 50%, the TGD ([16]; etoposide monotherapy 24 mg/kg) was 21 days and the “Median TTE” value ([16]; etoposide monotherapy 24 mg/kg SC daily Days 1-3) was 63 days.
